Results: patent publication US4908138A (priority 1987, dated 1990)

Key:
[1] = Reduction of the solubility of synthetic apatite after treatment; conditions: pH 5, consumption of lactic acid; comparison with untreated apatite
Protocol: The hydroxyacetonitrile diphosphonic acid of the invention effectively reduces the solubility of apatite by absorbing it on the tartar surface. To determine this property, the solubility of synthetic apatite after treatment with the hydroxyacetonitrile diphosphonic acid is determined by comparison with untreated apatite. To this end, a suspension of apatite is kept at pH 5 by neutralizing the hydroxyl ions passing into solution with lactic acid and determining the consumption of acid required for this purpose.

[2] = Hampshire test (calcium complexing power); type: physicochemical; conditions: pH 11; titrated with 0.2 molar calcium chloride until it remained cloudy; used as tetrasodium salt, converted for the pure diphosphonic acid
Protocol: The calcium complexing power was determined by the Hampshire test in which the hydroxyacetonitrile diphosphonic acid, to which Na2 CO3 has been added, was titrated with a 0.2 molar calcium chloride solution at pH 11 until it remained cloudy. Hydroxyacetonitrile diphosphonic acid was used in the form of its tetrasodium salt and the measured values obtained were converted for the pure diphosphonic acid.

[3] = Inhibition of conversion of calcium hydrogen phosphate into hydroxyl apatite (protons released); conditions: protons released in a calcium phosphate solution supersaturated at 60° C.
Protocol: A crucial step in the formation of tartar is the conversion of calcium hydrogen phosphate into hydroxyl apatite. […] To this end, the degree of inhibition of this conversion was measured by determining the protons released in a calcium phosphate solution supersaturated at 60° C. in accordance with the following equation: […]

| SMILES | Reduction of the solubility of apatite [1] [%] | calcium complexing power [2] [mg CaCO3 /g acid] | degree of inhibition of conversion of calcium hydrogen phosphate into hydroxyl apatite [3] [%] |
| --- | --- | --- | --- |
| CC(O)(P(=O)(O)O)P(=O)(O)O | 53 |  |  |
| N#CC(O)(P(=O)(O)O)P(=O)(O)O [Hydroxyacetonitrile diphosphonic acid, hydroxyacetonitrile diphosphonic acid] | 65 | 520 | 91 |
| O=P(O)(O)C(O)P(=O)(O)O [Hydroxymethane diphosphonic acid] |  |  | 81 |
| O=P(O)(O)C(O)P(=O)(O)O [drawing 8] |  | 130 |  |
